The record followed here is patent US11723894B2, “Combination product for the treatment of neurological and/or psychiatric disorders” (Consejo Superior de Investigaciones Cientificas (CSIC), priority 2017, dated 2023).

Test [1] concerns hippocampal subgranular neurogenic niche. Description: Short-term (4 days) in vivo activation of the hippocampal subgranular neurogenic niche (BrdU). More on the design: species or system C57BL/6 mice. The following applies: DMT 0.1 μg/animal, lateral ventricle, sacrificed day 5. The method, then:
Adult male C57BL/6 mice (obtained from Charles River Labs) were injected in the lateral ventricle (coordinates: from bregma, posterior −1 mm, lateral +1.3 mm, ventral +2 mm, according to the atlas of Paxinos and Franklin (Paxinos G, Franklin KBJ. The Mouse Brain in Stereotaxic Coordinates. 4. San Diego: Academic Press; 2012)), using a stereotaxic apparatus (Kopf Instruments, CA) with DMT (0.1 μg/animal), alone or in combination with the selective Sigma-1 BD1063 (BD, 0.2 μg/animal, Sigma, catalog number SML0276), the mixed 5-HT2A/1A receptor antagonist methiothepin (Met, 0.2 μg/animal, Sigma catalog number M149), or the selective 5-HT1A receptor antagonist WAY100635 (WAY, 0.2 μg/animal, ABCAM catalog number ab120550). Prior to the injection, mice were anesthetized by intraperitoneal injection of ketamine (60 mg/kg) and medetomidine (0.125 mg/kg). […] The boundaries of these nervous system regions were determined with reference to internal anatomic landmarks (Paxinos G, Franklin KBJ. The Mouse Brain in Stereotaxic Coordinates. 4. San Diego: Academic Press; 2012). For DG area selection, images were analyzed using computer-assisted image analysis software (Soft Imaging System Corporation, Lakewood, Colo., http://www.soft-imaging.com). Positive cells, which intersected the uppermost focal plane (exclusion plane) and the lateral exclusion boundaries of the counting frames, were not counted. […]

Test [2] concerns Human SH-SY5Y dopaminergic cells. The test can be described thus: 6-OHDA in vitro model of Parkinson's Disease, nitrite quantification (Griess). Format: cell-based. As to conditions: DMT 1 μM 1 h, then 6-OHDA 30 μM 24 h. In general terms: Griess reagent forms a coloured azo dye with nitrite.
The subject of test [3] is subgranular zone of the hippocampus. Description: Long-term (21 days) in vivo neurogenesis in the subgranular zone of the hippocampus (BrdU/NeuN, BrdU/DCX). More on the design: species or system C57BL/6 mice. The method, then:
Adult male C57BL/6 mice (obtained from Charles River Labs, Barcelona, Spain) were injected every other day for 3 weeks with DMT (0.1 μg/animal), alone or in combination with the selective Sigma-1 BD1063 antagonist (BD, 0.2 μg/animal, Sigma, Catalog number SML0276), the mixed 5-HT2A/1A receptor antagonist methiothepin (Met, 0.2 μg/animal, Sigma, Catalog number M149), or the selective 5-HT1A receptor antagonist WAY100635 (WAY, 0.2 μg/animal, ABCAM catalog number ab120550). On day 1 of treatment, animals were intraperitoneally injected with the proliferation marker 5-bromo-2-deoxyuridine (BrdU, 50 mg/kg, Sigma, Catalog number B5002) and sacrificed on day 21. Following anesthesia, the animals were perfused transcardially with 4% paraformaldehyde, and the brains obtained and post-fixed in the same solution at 4-8° C. overnight. They were subsequently cryoprotected, frozen, and finally cut into 30 μm coronal sections in a cryostat. Free-floating sections were immunostained using immunofluorescence analysis. For BrdU detection, samples were first incubated with 2 M HCl for 30 minutes at 37° C. before blocking 1 hour in PBS containing 5% normal serum, 0.1 M lysine, and 0.1% Triton X-100. Sections were then incubated with anti-BrdU mouse monoclonal antibody (DAKO, Barcelona, Spain, Catalog number M0744) combined with a neuronal marker, anti-neuN rabbit antibody (Abcam, Cambridge, UK. Catalog number ABN78) or an anti-double courtin (DCX) goat antibody (Santa Cruz Biotech. USA) at 4° C. overnight, washed three times and incubated with Alexa Fluor-488 goat anti-mouse and Alexa 647-goat anti-rabbit or -horse anti-goat secondary antibodies (Molecular Probes, Madrid, Spain), respectively, for 1 hour at room temperature. After rinses, sections were mounted with Vectashield.

With `CN(C)CCc1c[nH]c2ccccc12` [DMT, N,N-dimethyltryptamine], the “BrdU staining (proliferation) in the hippocampus” value in test [1] is reported as “increases”. Further, in test [2] (vs 6-OHDA alone), the “nitrite production brought about by 6-OHDA” value is “significantly reduced”. In addition, the “reduction of nitrite levels in the presence of Ritanserin” value in test [2] (Rit 1 μM 1 h) is given as “preserved”. In addition, the “double BrdU-NeuN stained cells (new neurons)” value in test [3] (DMT 0.1 μg/animal every other day for 3 weeks, sacrificed day 21) was “increase”. Besides, the “number of newly generated neurons as compared to basal” value in test [3] (FIG. 6 legend, printed as after 5 days of DMT administration) is recorded as “doubled”.
